Assay results taken from ChEMBL document CHEMBL1157360, “Characterization of an integron carrying blaIMP-1 and a new aminoglycoside resistance gene, aac(6')-31, and its dissemination among genetically unrelated clinical isolates in a Brazilian hospital” (2007).
Values after ≈ are worked out from the molar mass of the structure shown.

Legend:
Type in all cases: functional
Acinetobacter sp. [1] = test: Antimicrobial activity against Acinetobacter sp. 5227 isolate harboring bla IMP-1 carrying integron In86 containing aminoglycoside resistance gene aac(6')-3
Acinetobacter baumannii [2] = test: Antimicrobial activity against Acinetobacter baumannii 695 isolate harboring bla IMP-1 carrying integron In86 containing aminoglycoside resistance gene aac(6')-3
Acinetobacter baumannii [3] = test: Antimicrobial activity against Acinetobacter baumannii 9043 isolate harboring bla IMP-1 carrying integron In86 containing aminoglycoside resistance gene aac(6')-3
Acinetobacter baumannii [4] = test: Antimicrobial activity against Acinetobacter baumannii 501 isolate harboring bla IMP-1 carrying integron In86 containing aminoglycoside resistance gene aac(6')-3
Acinetobacter baumannii [5] = test: Antimicrobial activity against Acinetobacter baumannii 694 isolate harboring bla IMP-1 carrying integron In86 containing aminoglycoside resistance gene aac(6')-3
Acinetobacter baumannii [6] = test: Antimicrobial activity against Acinetobacter baumannii 696 isolate harboring bla IMP-1 carrying integron In86 containing aminoglycoside resistance gene aac(6')-3
Pseudomonas putida = test: Antimicrobial activity against Pseudomonas putida 12346 isolate harboring bla IMP-1 carrying integron In86 containing aminoglycoside resistance gene aac(6')-3
Acinetobacter sp. [7] = test: Antimicrobial activity against Acinetobacter sp. 5248 isolate harboring bla IMP-1 carrying integron In86 containing aminoglycoside resistance gene aac(6')-3
Escherichia coli [8] = test: Antimicrobial activity against Escherichia coli DH5alpha
Escherichia coli [9] = test: Antimicrobial activity against Escherichia coli DH5alpha harboring recombinant pIMPAR31

| SMILES | MIC (Acinetobacter sp. [1]) [µg/mL] | MIC (Acinetobacter baumannii [2]) [µg/mL] | MIC (Acinetobacter baumannii [3]) [µg/mL] | MIC (Acinetobacter baumannii [4]) [µg/mL] | MIC (Acinetobacter baumannii [5]) [µg/mL] | MIC (Acinetobacter baumannii [6]) [µg/mL] | MIC (Pseudomonas putida) [µg/mL] | MIC (Acinetobacter sp. [7]) [µg/mL] | MIC (Escherichia coli [8]) [µg/mL] | MIC (Escherichia coli [9]) [µg/mL] |
| --- | --- | --- | --- | --- | --- | --- | --- | --- | --- | --- |
| COc1c(N2CCNC(C)C2)c(F)cc2c(=O)c(C(=O)O)cn(C3CC3)c12 (stereo not drawn) [GATIFLOXACIN] | 1 (≈ 2.66 µM) | 4 (≈ 10.7 µM) | > 4 | 0.12 (≈ 0.32 µM) | 0.25 (≈ 0.666 µM) | 0.06 (≈ 0.16 µM) | > 4 | 4 (≈ 10.7 µM) |  |  |
| CCN1CCN(C(=O)N[C@@H](C(=O)N[C@@H]2C(=O)N3[C@@H]2SC(C)(C)[C@@H]3C(=O)O)c2ccccc2)C(=O)C1=O [PIPERACILLIN] | > 128 | 128 (≈ 247 µM) | > 128 | 32 (≈ 61.8 µM) | > 128 | > 128 | 64 (≈ 124 µM) | > 128 |  |  |
| C[C@@H](O)[C@H]1C(=O)N2C(C(=O)O)=C(S[C@@H]3CN[C@H](C(=O)N(C)C)C3)[C@H](C)[C@H]12 [MEROPENEM] | > 8 | > 8 | > 8 | > 8 | > 8 | > 8 | > 8 | > 8 |  |  |
| NC[C@H]1O[C@H](O[C@H]2[C@H](O)[C@@H](O[C@H]3O[C@H](CO)[C@@H](O)[C@H](N)[C@H]3O)[C@H](N)C[C@@H]2N)[C@H](N)C[C@@H]1O [TOBRAMYCIN] | 16 (≈ 34.2 µM) | > 16 | 16 (≈ 34.2 µM) | > 16 | 16 (≈ 34.2 µM) | 16 (≈ 34.2 µM) | > 16 | 8 (≈ 17.1 µM) | 0.25 (≈ 0.535 µM) | 4 |
| CCN[C@@H]1C[C@H](N)[C@@H](O[C@H]2OC(CN)=CC[C@H]2N)[C@H](O)[C@H]1O[C@H]1OC[C@](C)(O)[C@H](NC)[C@H]1O [NETILMICIN] | > 32 | 8 (≈ 16.8 µM) | > 32 | > 32 | 32 (≈ 67.3 µM) | 32 (≈ 67.3 µM) | > 32 | 16 (≈ 33.6 µM) | 0.5 (≈ 1.05 µM) | 4 |
| NCC[C@H](O)C(=O)N[C@@H]1C[C@H](N)[C@@H](O[C@H]2O[C@H](CN)[C@@H](O)[C@H](O)[C@H]2O)[C@H](O)[C@H]1O[C@H]1O[C@H](CO)[C@@H](O)[C@H](N)[C@H]1O [AMIKACIN] | > 32 | 32 (≈ 54.6 µM) | > 32 | 32 (≈ 54.6 µM) | > 32 | > 32 | > 32 | 32 (≈ 54.6 µM) | 0.5 (≈ 0.854 µM) | 8 |
| NC[C@H]1O[C@H](O[C@H]2[C@H](O)[C@@H](O[C@H]3O[C@H](CO)[C@@H](O)[C@H](N)[C@H]3O)[C@H](N)C[C@@H]2N)[C@H](O)[C@@H](O)[C@@H]1O [KANAMYCIN] |  |  |  |  |  |  |  |  | 0.5 (≈ 1.03 µM) |  |
| CC1(C)S[C@@H]2[C@H](NC(=O)[C@H](C(=O)O)c3ccsc3)C(=O)N2[C@H]1C(=O)O [TICARCILLIN] | > 128 | > 128 | > 128 | > 128 | > 128 | > 128 | > 128 | > 128 |  |  |
| C[C@@H](O)[C@H]1C(=O)N2C(C(=O)O)=C(SCCNC=N)C[C@H]12 [IMIPENEM ANHYDROUS] | > 8 | > 8 | > 8 | > 8 | > 8 | > 8 | > 8 | > 8 |  |  |
| CC(C)(O/N=C(\C(=O)N[C@@H]1C(=O)N2C(C(=O)[O-])=C(C[n+]3ccccc3)CS[C@H]12)c1csc(N)n1)C(=O)O [CEFTAZIDIME] | > 16 | > 16 | > 16 | > 16 | > 16 | > 16 | > 16 | > 16 |  |  |
| CO/N=C(\C(=O)N[C@@H]1C(=O)N2C(C(=O)[O-])=C(C[N+]3(C)CCCC3)CS[C@H]12)c1csc(N)n1 | > 16 | > 16 | > 16 | > 16 | > 16 | > 16 | > 16 | > 16 |  |  |
| CC1(C)S[C@@H]2[C@H](NC(=O)[C@H](N)c3ccccc3)C(=O)N2[C@H]1C(=O)O [AMPICILLIN] | > 16 | > 16 | > 16 | > 16 | > 16 | > 16 | > 16 | > 16 |  |  |
| C[C@H]1[C@H](NC(=O)/C(=N\OC(C)(C)C(=O)O)c2csc(N)n2)C(=O)N1S(=O)(=O)O [AZTREONAM] | > 16 | > 16 | > 16 | > 16 | > 16 | > 16 | > 16 | > 16 |  |  |
| O=C(O)c1cn(C2CC2)c2cc(N3CCNCC3)c(F)cc2c1=O [CIPROFLOXACIN] | 2 (≈ 6.04 µM) | > 4 | > 2 | 0.12 (≈ 0.362 µM) | 1 (≈ 3.02 µM) | 0.5 (≈ 1.51 µM) | > 2 | > 4 |  |  |
| C[C@H]1COc2c(N3CCN(C)CC3)c(F)cc3c(=O)c(C(=O)O)cn1c23.C[C@H]1COc2c(N3CCN(C)CC3)c(F)cc3c(=O)c(C(=O)O)cn1c23.O [LEVOFLOXACIN] | 2 | > 4 | > 4 | 0.25 | 0.25 | 0.25 | > 4 | 4 |  |  |
| CN[C@@H]1[C@@H](O)[C@@H](O[C@@H]2[C@@H](O)[C@H](O[C@H]3O[C@H](CN)[C@@H](O)[C@H](O)[C@H]3O)[C@@H](N)C[C@H]2NC(=O)[C@@H](O)CN)OC[C@]1(C)O [ISEPAMICIN] |  |  |  |  |  |  |  |  | 0.12 (≈ 0.211 µM) | 4 |
| CN[C@@H]1[C@@H](O)[C@@H](O[C@@H]2[C@@H](O)[C@H](O[C@H]3OC(CN)=CC[C@H]3N)[C@@H](N)C[C@H]2N)OC[C@]1(C)O [SISOMICIN] |  |  |  |  |  |  |  |  | ≤ 0.25 | 8 |
